Assays:
Format in all cases: cell-based
[1] = tested on: Candida albicans BF 1; test: Minimum inhibitory concentration determination; settings: clinical isolate BF 1; 24 h, 37° C.
Experimental: (§1) Fungus strain: Candida albicans DAY185; 3 clinical isolates of Candida albicans, obtained from Medical University of Vienna, named as Candida albicans BF 1, BF 2 and BF 3.
(§2) 100 μl of Candida albicans (1×10^6 CFU/mL) is added to a 96-pore plate containing different concentrations (2, 1, 0.5, 0.25, 0.125, 0.0625 or 0 μg/mL) of free AmpB and CSNP-AmpB-Gls. The micropore plate is rotated at a rotation speed of 150 rpm and incubated at 37° C. for 24 h. The minimum inhibitory concentration is defined as the minimum AmpB concentration at which visible growth cannot be detected.

[2] = tested on: Candida albicans BF 2; test: Minimum inhibitory concentration determination; settings: clinical isolate BF 2; 24 h, 37° C.
Experimental: as §1, §2

[3] = tested on: Candida albicans BF 3; test: Minimum inhibitory concentration determination; settings: clinical isolate BF 3; 24 h, 37° C.
Experimental: as §1, §2

[4] = tested on: Candida albicans DAY185; test: Minimum inhibitory concentration determination; settings: strain DAY 185; 24 h, 37° C.; minimum AmpB concentration without visible growth
Experimental: as §1, §2

[5] = tested on: Candida albicans biofilm on silica gel; test: Influence on medical silica gel surface biofilm (CLSM viable/dead staining, SEM)
Experimental: The biofilm on a silica gel is treated by free AmpB and NPs by following the method described above. The biofilm structure is studied through a scanning electron microscope. The biofilm survivability is observed with CLSM, and viable/dead fungus staining kit is used for staining, […]

C[C@@H]1[C@H](O)[C@@H](C)/C=C/C=C/C=C/C=C/C=C/C=C/C=C/[C@H](O[C@@H]2O[C@H](C)[C@@H](O)[C@H](N)[C@@H]2O)C[C@@H]2O[C@](O)(C[C@@H](O)C[C@@H](O)[C@H](O)CC[C@@H](O)C[C@@H](O)CC(=O)O[C@H]1C)C[C@H](O)[C@H]2C(=O)O [AmpB, amphotericin B]
AmpB MIC [1]: 2 µg/mL | AmpB MIC [2]: 2 µg/mL | AmpB MIC [3]: 4 µg/mL | AmpB MIC [4]: 1 µg/mL | biofilm structure change by SEM ([5]; silica gel, FIG. 6): significantly reduces fungus colonization | cell viability of the biofilm on silica gel by CLSM ([5]; viable/dead staining, FIG. 5): green (viable cells) is significantly reduced
